Laboratory results reported in PubChem BioAssay (NCI).
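Step 1: Grow cells in 96-well plates. Step 2: Expose to compound for 48 hours at 5 concentrations. Step 3: Interpolate endpoints linearly; if unreached, use highest concentration. GI50 = concentration required for 50% inhibition of growth. At the TGI there is no net growth.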

Legend:
Assay in all cases: inhibition of tumour cell growth, NCI panel, 48 h
[1] = system: 786-0 renal
[2] = system: NCI-H460 lung
[3] = system: KM12 colon
[4] = system: UO-31 renal
[5] = system: BT-549 breast
[6] = system: HCC-2998 colon
[7] = system: OVCAR-5 ovarian
[8] = system: SN12C renal
[9] = system: SF-295 CNS
[10] = system: EKVX NSCLC

| Compound | GI50 [1] [nM] | TGI [1] [nM] | GI50 [2] [nM] | TGI [2] [nM] | GI50 [3] [nM] | TGI [3] [nM] | GI50 [4] [nM] | GI50 [5] [nM] | TGI [5] [nM] | GI50 [6] [nM] | TGI [6] [nM] | GI50 [7] [nM] | TGI [7] [nM] | GI50 [8] [nM] | TGI [8] [nM] | GI50 [9] [nM] | TGI [9] [nM] | TGI [4] [nM] | GI50 [10] [nM] | TGI [10] [nM] |
| --- | --- | --- | --- | --- | --- | --- | --- | --- | --- | --- | --- | --- | --- | --- | --- | --- | --- | --- | --- | --- |
| C[C@@H](Oc1ccc2[nH]nc(/C=C/c3cnn(CCO)c3)c2c1)c1c(Cl)cncc1Cl | 253 | 2380 | 86.6 | 1620 | < 10 | 5870 | 217 | 142 | 750 | 1430 | 5210 | 166 | 2290 | 121 | > 100000 | 78.5 | 23700 | – | – | – |
| c1cc[c]([Sn]([S]c2cccc3cccnc23)([S]c2cccc3cccnc23)[c]2ccccc2)cc1 | 212 | 502 | 228 | 643 | 230 | 616 | 182 | – | – | 170 | 352 | 1340 | 2690 | 284 | 954 | 353 | 1400 | 514 | 220 | 881 |
| CCCCCC(O)(CCCCC)CCCCCCCCC1=C(O)c2[nH]c(=O)ccc2C(=O)C1=O | – | 20800 | – | 24000 | – | 23600 | – | – | – | – | 27800 | – | 35000 | – | 21000 | – | 16400 | 26100 | – | 28800 |
| CCCCCCCCCCCC(O)=C1C(=O)CC(O)CC1=O (configuration not stated) | – | > 100000 | – | > 100000 | – | > 100000 | – | – | – | – | > 100000 | – | > 100000 | – | > 100000 | – | > 100000 | > 100000 | – | > 100000 |
| COC(=O)/C(=C/c1ccc(OC)cc1)NC(=O)c1ccccc1 | – | > 100000 | – | > 100000 | – | > 100000 | – | – | – | – | > 100000 | – | > 100000 | – | > 100000 | – | > 100000 | > 100000 | – | > 100000 |
